Literature values as cited in patent US20240060990A1, “SPATIAL SIGNALING NETWORKS FOR MULTIPLEXED DRUG RESPONSE MEASUREMENT AND MODELING” (Georgia Tech Research Corporation, priority 2022, published 2024).

System: PC-9 cell cultures
Conditions: PC-9 cells, combined with Osimertinib; cited from earlier work

Structure (SMILES) | cell apoptosis
CC(C)Nc1cc(-c2c[nH]c(C(=O)N[C@H](CO)c3cccc(Cl)c3)c2)c(Cl)cn1 [VRT, VRT752271] | enhanced
C=CC(=O)N1CCC(C)(Nc2cccc(C(F)(F)F)c2)C1 (centres unmarked) [YAP/TEAD inhibitor, MYF-01-37] | enhanced
